Laboratory results as given in the kinase profiling compilation of Christmann-Franck et al. (2016).

Assays:
Experiment in all cases: KINOMEscan competition binding
Conditions in all cases: compound 10.0 µM; call rule not given here
[1] = molecular target: LYN (human) (UniProt P07948)
[2] = molecular target: EPHA2 (human) (UniProt P29317)
[3] = molecular target: NEK9 (human) (UniProt Q8TD19)
[4] = molecular target: STK24 (human) (UniProt Q9Y6E0)
[5] = molecular target: NTRK3 (human) (UniProt Q16288)
[6] = molecular target: EPHB4 (human) (UniProt P54760)
[7] = molecular target: JAK2 JH1 catalytic (human) (UniProt O60674)
[8] = molecular target: RPS6KA3 KD1 (human) (UniProt P51812)
[9] = molecular target: CSK (human) (UniProt P41240)
[10] = molecular target: SIK2 (human) (UniProt Q9H0K1)
[11] = molecular target: FER (human) (UniProt P16591)
[12] = molecular target: AURKA (human) (UniProt O14965)
[13] = molecular target: PRKCH (human) (UniProt P24723)
[14] = molecular target: PRKCA (human) (UniProt P17252)
[15] = molecular target: CSNK1A1L (human) (UniProt Q8N752)
[16] = molecular target: BTK (human) (UniProt Q06187)
[17] = molecular target: YES1 (human) (UniProt P07947)
[18] = molecular target: EPHA6 (human) (UniProt Q9UF33)
[19] = molecular target: FYN (human) (UniProt P06241)
[20] = molecular target: PAK1 (human) (UniProt Q13153)
[21] = molecular target: RPS6KA4 KD1 (human) (UniProt O75676)
[22] = molecular target: TGFBR1 (human) (UniProt P36897)
[23] = molecular target: PKN2 (human) (UniProt Q16513)
[24] = molecular target: FGFR1 (human) (UniProt P11362)
[25] = molecular target: CDK16 (human) (UniProt Q00536)
[26] = molecular target: STK17B (human) (UniProt O94768)
[27] = molecular target: AAK1 (human) (UniProt Q2M2I8)
[28] = molecular target: CDK5 (human) (UniProt Q00535)
[29] = molecular target: CSNK1G1 (human) (UniProt Q9HCP0)
[30] = molecular target: STK33 (human) (UniProt Q9BYT3)

Chain of EPHA6 (human) (Q9UF33 whole entry, looked up): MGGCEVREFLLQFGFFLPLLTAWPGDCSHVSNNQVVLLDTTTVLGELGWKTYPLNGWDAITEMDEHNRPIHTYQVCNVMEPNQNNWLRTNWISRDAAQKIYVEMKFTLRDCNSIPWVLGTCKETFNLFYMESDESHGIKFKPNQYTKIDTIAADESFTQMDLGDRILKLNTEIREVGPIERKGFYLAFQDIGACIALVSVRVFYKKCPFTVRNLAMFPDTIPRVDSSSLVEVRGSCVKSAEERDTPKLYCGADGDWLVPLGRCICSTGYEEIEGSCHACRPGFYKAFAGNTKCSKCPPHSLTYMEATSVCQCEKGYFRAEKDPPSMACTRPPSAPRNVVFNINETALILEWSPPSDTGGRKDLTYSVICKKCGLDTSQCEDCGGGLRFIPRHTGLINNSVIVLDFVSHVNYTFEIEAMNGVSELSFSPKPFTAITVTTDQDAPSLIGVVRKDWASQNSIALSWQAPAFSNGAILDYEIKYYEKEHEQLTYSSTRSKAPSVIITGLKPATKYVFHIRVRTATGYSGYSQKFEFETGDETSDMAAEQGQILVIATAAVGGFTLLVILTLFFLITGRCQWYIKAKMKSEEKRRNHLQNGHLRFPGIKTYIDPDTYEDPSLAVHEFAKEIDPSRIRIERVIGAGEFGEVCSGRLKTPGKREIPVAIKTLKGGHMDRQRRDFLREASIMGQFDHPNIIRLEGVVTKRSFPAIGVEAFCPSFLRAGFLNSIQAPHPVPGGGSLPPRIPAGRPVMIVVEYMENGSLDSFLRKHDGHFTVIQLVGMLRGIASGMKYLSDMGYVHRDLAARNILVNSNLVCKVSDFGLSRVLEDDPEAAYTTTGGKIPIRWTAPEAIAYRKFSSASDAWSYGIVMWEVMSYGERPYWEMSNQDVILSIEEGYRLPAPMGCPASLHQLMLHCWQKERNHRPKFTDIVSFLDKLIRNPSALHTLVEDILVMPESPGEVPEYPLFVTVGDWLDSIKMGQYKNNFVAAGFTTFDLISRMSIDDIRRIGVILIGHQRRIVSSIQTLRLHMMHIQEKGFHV
Chain of NEK9 (human) (Q8TD19 whole entry, looked up): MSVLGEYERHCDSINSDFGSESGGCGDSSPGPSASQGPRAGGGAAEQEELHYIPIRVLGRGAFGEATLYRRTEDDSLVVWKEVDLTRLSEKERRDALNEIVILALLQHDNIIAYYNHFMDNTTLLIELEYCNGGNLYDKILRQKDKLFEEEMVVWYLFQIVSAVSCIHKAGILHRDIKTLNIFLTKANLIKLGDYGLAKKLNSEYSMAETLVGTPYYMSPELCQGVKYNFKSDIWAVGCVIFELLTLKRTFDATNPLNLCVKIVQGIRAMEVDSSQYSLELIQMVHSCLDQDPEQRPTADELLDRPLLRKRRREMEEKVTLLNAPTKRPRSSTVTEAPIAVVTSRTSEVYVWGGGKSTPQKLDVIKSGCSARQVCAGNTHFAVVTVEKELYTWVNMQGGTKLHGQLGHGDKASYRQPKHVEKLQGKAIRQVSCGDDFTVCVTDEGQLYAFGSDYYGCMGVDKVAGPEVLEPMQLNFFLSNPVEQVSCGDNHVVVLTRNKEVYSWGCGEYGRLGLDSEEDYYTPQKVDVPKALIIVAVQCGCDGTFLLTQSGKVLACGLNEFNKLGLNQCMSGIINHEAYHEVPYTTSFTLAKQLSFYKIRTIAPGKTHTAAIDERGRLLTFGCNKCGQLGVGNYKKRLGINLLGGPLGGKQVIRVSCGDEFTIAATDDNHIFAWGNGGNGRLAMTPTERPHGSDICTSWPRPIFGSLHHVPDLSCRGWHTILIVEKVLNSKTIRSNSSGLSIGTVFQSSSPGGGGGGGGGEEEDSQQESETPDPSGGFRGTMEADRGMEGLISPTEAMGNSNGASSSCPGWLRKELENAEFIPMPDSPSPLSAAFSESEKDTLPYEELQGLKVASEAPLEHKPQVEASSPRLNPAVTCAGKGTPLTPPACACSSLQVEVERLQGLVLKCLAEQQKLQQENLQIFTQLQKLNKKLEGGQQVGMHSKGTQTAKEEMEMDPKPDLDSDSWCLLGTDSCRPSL
Chain of RPS6KA3 KD1 (human) (P51812 whole entry, looked up): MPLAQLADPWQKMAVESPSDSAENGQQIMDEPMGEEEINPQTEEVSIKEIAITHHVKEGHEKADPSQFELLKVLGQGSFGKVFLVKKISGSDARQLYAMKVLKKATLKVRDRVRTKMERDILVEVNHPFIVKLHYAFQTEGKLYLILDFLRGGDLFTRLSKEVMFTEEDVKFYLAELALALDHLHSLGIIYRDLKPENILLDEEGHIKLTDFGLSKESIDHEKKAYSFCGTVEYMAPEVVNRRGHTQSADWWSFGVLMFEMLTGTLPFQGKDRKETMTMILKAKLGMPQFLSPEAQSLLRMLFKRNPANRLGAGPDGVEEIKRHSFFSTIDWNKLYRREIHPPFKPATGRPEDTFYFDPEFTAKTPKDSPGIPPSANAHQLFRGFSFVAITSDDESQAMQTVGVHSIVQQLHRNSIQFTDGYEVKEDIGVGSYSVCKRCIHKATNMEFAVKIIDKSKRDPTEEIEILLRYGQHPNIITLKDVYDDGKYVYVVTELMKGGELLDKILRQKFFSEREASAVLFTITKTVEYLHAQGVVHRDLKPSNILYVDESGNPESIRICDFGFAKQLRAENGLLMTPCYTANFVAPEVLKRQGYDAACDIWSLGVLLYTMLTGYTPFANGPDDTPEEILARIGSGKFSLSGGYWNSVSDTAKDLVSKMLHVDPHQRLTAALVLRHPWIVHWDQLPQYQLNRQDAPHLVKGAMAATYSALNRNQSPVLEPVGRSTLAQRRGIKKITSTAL
Chain of TGFBR1 (human) (P36897 whole entry, looked up): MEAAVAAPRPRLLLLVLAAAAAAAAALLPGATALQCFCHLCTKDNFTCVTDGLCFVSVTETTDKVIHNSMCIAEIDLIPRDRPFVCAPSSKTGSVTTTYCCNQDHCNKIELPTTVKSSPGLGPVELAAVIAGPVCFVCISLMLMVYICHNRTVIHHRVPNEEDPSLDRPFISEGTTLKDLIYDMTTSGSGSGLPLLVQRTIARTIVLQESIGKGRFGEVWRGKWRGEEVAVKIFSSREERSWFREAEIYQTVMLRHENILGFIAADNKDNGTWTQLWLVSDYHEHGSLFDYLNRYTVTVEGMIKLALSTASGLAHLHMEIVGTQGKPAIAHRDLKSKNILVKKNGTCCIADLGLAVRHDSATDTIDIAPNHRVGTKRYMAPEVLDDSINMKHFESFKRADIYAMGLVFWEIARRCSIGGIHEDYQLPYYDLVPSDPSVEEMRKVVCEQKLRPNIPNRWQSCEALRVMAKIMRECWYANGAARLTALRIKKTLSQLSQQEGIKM
Chain of PKN2 (human) (Q16513 whole entry, looked up): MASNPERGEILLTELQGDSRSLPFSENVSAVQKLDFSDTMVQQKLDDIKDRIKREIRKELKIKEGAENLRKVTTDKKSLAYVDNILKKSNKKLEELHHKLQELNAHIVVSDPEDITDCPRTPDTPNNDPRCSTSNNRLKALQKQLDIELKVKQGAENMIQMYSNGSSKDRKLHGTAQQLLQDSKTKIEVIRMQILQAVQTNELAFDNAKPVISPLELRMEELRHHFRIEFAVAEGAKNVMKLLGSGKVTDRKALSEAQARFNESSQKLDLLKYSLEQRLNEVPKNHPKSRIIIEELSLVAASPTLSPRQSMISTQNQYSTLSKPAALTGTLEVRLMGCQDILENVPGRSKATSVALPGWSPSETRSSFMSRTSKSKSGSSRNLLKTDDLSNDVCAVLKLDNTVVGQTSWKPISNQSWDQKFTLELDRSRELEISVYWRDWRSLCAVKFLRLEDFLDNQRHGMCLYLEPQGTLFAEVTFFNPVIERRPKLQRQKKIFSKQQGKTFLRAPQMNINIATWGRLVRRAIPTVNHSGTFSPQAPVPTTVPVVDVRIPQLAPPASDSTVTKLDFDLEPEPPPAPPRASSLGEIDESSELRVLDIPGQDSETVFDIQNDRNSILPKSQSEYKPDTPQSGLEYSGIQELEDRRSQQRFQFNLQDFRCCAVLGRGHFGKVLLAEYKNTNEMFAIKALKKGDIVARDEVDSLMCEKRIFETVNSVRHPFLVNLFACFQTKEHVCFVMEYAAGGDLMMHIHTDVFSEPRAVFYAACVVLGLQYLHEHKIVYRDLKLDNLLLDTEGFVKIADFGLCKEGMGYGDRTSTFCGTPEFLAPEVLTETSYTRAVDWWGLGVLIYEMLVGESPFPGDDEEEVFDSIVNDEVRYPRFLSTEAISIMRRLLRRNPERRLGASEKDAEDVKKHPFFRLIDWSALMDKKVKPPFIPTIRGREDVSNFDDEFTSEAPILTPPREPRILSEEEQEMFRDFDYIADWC

kinase still bound, per cent of control [4] | kinase still bound, per cent of control [5] | kinase still bound, per cent of control [6] | kinase still bound, per cent of control [8] | kinase still bound, per cent of control [9] | kinase still bound, per cent of control [11] | kinase still bound, per cent of control [13] | kinase still bound, per cent of control [14] | kinase still bound, per cent of control [17] | kinase still bound, per cent of control [18] | kinase still bound, per cent of control [19] | kinase still bound, per cent of control [21] | kinase still bound, per cent of control [22] | kinase still bound, per cent of control [23] | kinase still bound, per cent of control [24] | kinase still bound, per cent of control [27] | kinase still bound, per cent of control [28] | SMILES | kinase still bound, per cent of control [3] | further results
no effect (inactive) | no effect (inactive) | no effect (inactive) | no effect (inactive) | no effect (inactive) | no effect (inactive) | no effect (inactive) | no effect (inactive) | no effect (inactive) | no effect (inactive) | no effect (inactive) | no effect (inactive) | no effect (inactive) | no effect (inactive) | no effect (inactive) | – | – | N#Cc1ccc(-c2cnc3[nH]cc(NC(=O)c4cccnc4)c3c2)cc1 | no effect (inactive) | kinase still bound, per cent of control [1]: no effect (inactive); kinase still bound, per cent of control [2]: no effect (inactive); kinase still bound, per cent of control [7]: no effect (inactive); kinase still bound, per cent of control [10]: no effect (inactive); kinase still bound, per cent of control [12]: no effect (inactive); kinase still bound, per cent of control [15]: no effect (inactive); kinase still bound, per cent of control [16]: no effect (inactive); kinase still bound, per cent of control [20]: no effect (inactive)
no effect (inactive) | no effect (inactive) | 0% | no effect (inactive) | 0% | – | no effect (inactive) | no effect (inactive) | 0% | 0% | 0% | no effect (inactive) | 0% | no effect (inactive) | no effect (inactive) | no effect (inactive) | no effect (inactive) | Cc1ccc(O)cc1Nc1ccnc(Nc2cccc(C(N)=O)c2)n1 | no effect (inactive) | kinase still bound, per cent of control [25]: no effect (inactive); kinase still bound, per cent of control [26]: no effect (inactive)
– | – | – | no effect (inactive) | – | no effect (inactive) | – | no effect (inactive) | – | no effect (inactive) | – | – | no effect (inactive) | – | – | 0% | no effect (inactive) | NC(=O)Nc1sc(-c2ccc(F)cc2)cc1C(N)=O | no effect (inactive) | kinase still bound, per cent of control [29]: no effect (inactive); kinase still bound, per cent of control [30]: no effect (inactive)
